Structures are written as SMILES.

In the first experiment the test system is A-427. Briefly: relative viability (nuclei count vs DMSO), 5 days (fraction); higher = more cells survive. The note with it: first compound 0.2 µM. The procedure, abridged:
(§1)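 Medians of duplicate plates are given as relative viability. That measure is the nuclei count in treated wells divided by the count in vehicle wells. Counts were taken on 4× images of lung cancer cell lines in 1536-well plates, 5 days after pin-tool dosing the day after seeding with one drug alone or a fixed anchor-drug dose plus five library-drug doses (not always all listed) in √10 steps.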
In turn, `COCC1(CO)C(=O)C2CCN1CC2` (stereo not given) [PRIMA-1MET] + CS(=O)(=O)CCNCc1ccc(-c2ccc3ncnc(Nc4ccc(OCc5cccc(F)c5)c(Cl)c4)c3c2)o1 [Lapatinib] (partner 2 µM) gave a relative viability of 1.08.
The same measure, in the same setting: as for `COCC1(CO)C(=O)C2CCN1CC2` (stereo not given) [PRIMA-1MET] + O=C(CCCCCCC(=O)Nc1ccccc1)NO [Vorinostat] (partner 1 µM), the figure is 1.1; as for `COCC1(CO)C(=O)C2CCN1CC2` (stereo not given) [PRIMA-1MET] + Cc1cc(Nc2cc(N3CCN(C)CC3)nc(Sc3ccc(NC(=O)C4CC4)cc3)n2)n[nH]1 [Tozasertib] (partner 0.1 µM), 0.163.
On to `COCC1(CO)C(=O)C2CCN1CC2` (stereo not given) [PRIMA-1MET] + COc1cccc2cc(-c3nc([C@H]4CC[C@H](C(=O)O)CC4)n4ncnc(N)c34)[nH]c12 [OSI-027] (partner 0.5 µM), for which the relative viability turned out to be 0.284.

The same experiment, now with this note: first compound 0.6325 µM.
In the case of `COCC1(CO)C(=O)C2CCN1CC2` (stereo not given) [PRIMA-1MET] + CS(=O)(=O)CCNCc1ccc(-c2ccc3ncnc(Nc4ccc(OCc5cccc(F)c5)c(Cl)c4)c3c2)o1 [Lapatinib] (partner 2 µM), the relative viability was found to be 0.849.
On to `COCC1(CO)C(=O)C2CCN1CC2` (stereo not given) [PRIMA-1MET] + O=C(CCCCCCC(=O)Nc1ccccc1)NO [Vorinostat] (partner 1 µM), for which the relative viability was found to be 0.869.
Same read-out and setting: to `COCC1(CO)C(=O)C2CCN1CC2` (stereo not given) [PRIMA-1MET] + Cc1cc(Nc2cc(N3CCN(C)CC3)nc(Sc3ccc(NC(=O)C4CC4)cc3)n2)n[nH]1 [Tozasertib] (partner 0.1 µM) belongs 0.201; to `COCC1(CO)C(=O)C2CCN1CC2` (stereo not given) [PRIMA-1MET] + COc1cccc2cc(-c3nc([C@H]4CC[C@H](C(=O)O)CC4)n4ncnc(N)c34)[nH]c12 [OSI-027] (partner 0.5 µM), 0.444.

The experiment is the same for the next values; noted with them: first compound 2 µM.
In turn, `COCC1(CO)C(=O)C2CCN1CC2` (stereo not given) [PRIMA-1MET] + CS(=O)(=O)CCNCc1ccc(-c2ccc3ncnc(Nc4ccc(OCc5cccc(F)c5)c(Cl)c4)c3c2)o1 [Lapatinib] (partner 2 µM) registered a relative viability of 0.895.
For the compound `COCC1(CO)C(=O)C2CCN1CC2` (stereo not given) [PRIMA-1MET] + O=C(CCCCCCC(=O)Nc1ccccc1)NO [Vorinostat] (partner 1 µM), the relative viability turned out to be 0.856.
The same measure, in the same setting: to `COCC1(CO)C(=O)C2CCN1CC2` (stereo not given) [PRIMA-1MET] + Cc1cc(Nc2cc(N3CCN(C)CC3)nc(Sc3ccc(NC(=O)C4CC4)cc3)n2)n[nH]1 [Tozasertib] (partner 0.1 µM) belongs 0.203.
As for `COCC1(CO)C(=O)C2CCN1CC2` (stereo not given) [PRIMA-1MET] + COc1cccc2cc(-c3nc([C@H]4CC[C@H](C(=O)O)CC4)n4ncnc(N)c34)[nH]c12 [OSI-027] (partner 0.5 µM), the relative viability worked out at 0.389.

Still in this experiment, the particulars now being: first compound 6.325 µM.
With `COCC1(CO)C(=O)C2CCN1CC2` (stereo not given) [PRIMA-1MET] + CS(=O)(=O)CCNCc1ccc(-c2ccc3ncnc(Nc4ccc(OCc5cccc(F)c5)c(Cl)c4)c3c2)o1 [Lapatinib] (partner 2 µM), the relative viability is 1.02.
As to `COCC1(CO)C(=O)C2CCN1CC2` (stereo not given) [PRIMA-1MET] + O=C(CCCCCCC(=O)Nc1ccccc1)NO [Vorinostat] (partner 1 µM), the relative viability was 0.949.
In the case of `COCC1(CO)C(=O)C2CCN1CC2` (stereo not given) [PRIMA-1MET] + Cc1cc(Nc2cc(N3CCN(C)CC3)nc(Sc3ccc(NC(=O)C4CC4)cc3)n2)n[nH]1 [Tozasertib] (partner 0.1 µM), the relative viability was 0.186.
`COCC1(CO)C(=O)C2CCN1CC2` (stereo not given) [PRIMA-1MET] + COc1cccc2cc(-c3nc([C@H]4CC[C@H](C(=O)O)CC4)n4ncnc(N)c34)[nH]c12 [OSI-027] (partner 0.5 µM) returned a relative viability of 0.263.

The same experiment, now with this note: first compound 20 µM.
For the compound `COCC1(CO)C(=O)C2CCN1CC2` (stereo not given) [PRIMA-1MET] + CS(=O)(=O)CCNCc1ccc(-c2ccc3ncnc(Nc4ccc(OCc5cccc(F)c5)c(Cl)c4)c3c2)o1 [Lapatinib] (partner 2 µM), the relative viability was 0.982.
Consider `COCC1(CO)C(=O)C2CCN1CC2` (stereo not given) [PRIMA-1MET] + O=C(CCCCCCC(=O)Nc1ccccc1)NO [Vorinostat] (partner 1 µM), for which the relative viability worked out at 0.865.
Take `COCC1(CO)C(=O)C2CCN1CC2` (stereo not given) [PRIMA-1MET] + Cc1cc(Nc2cc(N3CCN(C)CC3)nc(Sc3ccc(NC(=O)C4CC4)cc3)n2)n[nH]1 [Tozasertib] (partner 0.1 µM): the relative viability amounted to 0.175.
For `COCC1(CO)C(=O)C2CCN1CC2` (stereo not given) [PRIMA-1MET] + COc1cccc2cc(-c3nc([C@H]4CC[C@H](C(=O)O)CC4)n4ncnc(N)c34)[nH]c12 [OSI-027] (partner 0.5 µM), the relative viability is 0.369.

The subject of the next experiment is BEN. The experiment is described as above. The following applies: first compound 0.2 µM. In a few lines:
as §1
Compound `COCC1(CO)C(=O)C2CCN1CC2` (stereo not given) [PRIMA-1MET] + CS(=O)(=O)CCNCc1ccc(-c2ccc3ncnc(Nc4ccc(OCc5cccc(F)c5)c(Cl)c4)c3c2)o1 [Lapatinib] (partner 2 µM) had a relative viability of 0.786.
`COCC1(CO)C(=O)C2CCN1CC2` (stereo not given) [PRIMA-1MET] + O=C(CCCCCCC(=O)Nc1ccccc1)NO [Vorinostat] (partner 1 µM) had a relative viability of 0.664.
Compound `COCC1(CO)C(=O)C2CCN1CC2` (stereo not given) [PRIMA-1MET] + Cc1cc(Nc2cc(N3CCN(C)CC3)nc(Sc3ccc(NC(=O)C4CC4)cc3)n2)n[nH]1 [Tozasertib] (partner 0.1 µM) showed a relative viability of 0.504.
`COCC1(CO)C(=O)C2CCN1CC2` (stereo not given) [PRIMA-1MET] + COc1cccc2cc(-c3nc([C@H]4CC[C@H](C(=O)O)CC4)n4ncnc(N)c34)[nH]c12 [OSI-027] (partner 0.5 µM): the relative viability was 0.283.

The same experiment, now with this note: first compound 0.6325 µM.
With `COCC1(CO)C(=O)C2CCN1CC2` (stereo not given) [PRIMA-1MET] + CS(=O)(=O)CCNCc1ccc(-c2ccc3ncnc(Nc4ccc(OCc5cccc(F)c5)c(Cl)c4)c3c2)o1 [Lapatinib] (partner 2 µM), the relative viability was 0.774.

The record behind these values is the supplement of paper PMC10307832.
